Patent US8076142B2, “Rooted plant assay system” (BASF Plant Sciences GmbH, priority 2006, dated 2011)

Tested on: soybean explants
Assay: Auxin effect on transformation efficiency in soybean explants (disarmed A. rhizogenes, root induction and selection medium)
Type: cell-based
Settings: for transformation efficiency compared to control with no auxin: cotyledons from William 82 as explants
Procedure: Clean soybean seeds from soybean cultivar were sterilized in a chamber with chlorine gas produced by adding 3.5 ml 12N HCl drop wise into 100 ml bleach. All operations were conducted in a fume hood. After 24 hours in the chamber, seeds were removed and used immediately or stored at room temperature until use. Discolored seeds or cracked seeds were removed. To imbibe seeds, warm GM medium was poured around seeds until the seeds were entirely covered by the medium. Seedlings were grown in the light for 5-7 days until the epicotyl was extended beyond the cotyledons. Seedlings can be stored at 4° C. overnight before being used in transformation. The Germination Medium (GM) comprises: 1×B5 salts and vitamins, 1×MS iron stock, 2% sucrose, and 0.8% Noble agar at pH 5.8. As an alternative, soybean seeds can be germinated in 1% agar (50 ml) in Petri dishes for 7 days before Agrobacterium inoculation.
Three days before inoculation, a disarmed Agrobacterium culture, for example, the disarmed A. rhizogenes strain K599 liquid culture, was placed in 5 ml LB+Kan50 (containing 50 ug/ml Kanamycin) media in a 28° C. shaker (225 rpm) overnight. The next day, 1 ml of the culture was taken and spread onto an LB+Kan50 agar plate. The plates were incubated in a 28° C. incubator for two days. At the end of the two-day period the plates were covered with thick colonies. One plate was prepared for every 50 explants to be inoculated.
Soybean seedlings had elongated hypocotyls approximately 3 to 5 cm in length with visible epicotyls. The explants were then prepared by removing the epicotyls and part of the hypocotyls. The explant contained one or two cotyledons, an axillary meristem and the hypocotyl about 0.5 cm to about 3 cm in length. The seed coat was removed to facilitate cotyledon development. The cut end of the hypocotyl was the target for transformation/infection.
Alternatively, cotyledons containing the proximal end from its connection with the seedlings were used as another type of explant for transformation. The cut end was the target for Agrobacterium inoculation.
After the explants were cut off the seedlings, the cut end was immediately dipped onto the disarmed thick A. rhizogenes colonies prepared above so that the colonies were visible on the cut end. Alternatively, the explants can be immersed in the disarmed A. rhizogenes liquid culture for 30 minutes. The explants were then placed onto 1% agar in Petri dishes for co-cultivation. Approximately 10 explants were placed in one dish. The dishes were sealed with Saran wrap and co-cultured at 25-27° C. under light for 6-8 days.
After the transformation and co-cultivation step, soybean explants were transferred to rooting induction medium with a selection agent, for example, S-B5-605 or S-B5-607 for Bar gene selection (De Block et al., EMBO J. 6:2513-2518, 1987), or S-B5-708 for an AHAS mutant gene (Sathasivan et al., Plant Phys. 97:1044-50, 1991) selection, in Petri dishes. The cut end was inserted into the medium so that the callus developed from the cut end in the future was just below the medium surface. Six to nine explants were placed in each Petri dish. Cultures were maintained in the same condition as in the co-cultivation step.
The S-B5-605 medium comprises: 0.5×B5 salts, 3 mM MES, 2% sucrose, 1×B5 vitamins, 400 μg/ml Timentin, 0.8% Noble agar, 1 mg/1 IBA and 3 μg/ml Glufosinate Ammonion (selection agent for Bar gene) at pH 5.8. The S-MS-607 medium comprises: 0.2×MS salts and B5 vitamins, 2% sucrose, 400 mg/l Timentin, and 3 mg/L Glufosinate Ammonium at pH5.8. The S-B5-708 medium comprises: 0.5×B5 salts, 3 mM MES, 2% sucrose, 1×B5 vitamins, 400 μg/ml Timentin, 0.8% Noble agar, and 1 μM Imazapyr (selection agent for AHAS gene) (BASF Corporation, Florham Park, N.J.) at pH5.8.
Two to three weeks after the selection and root induction, transformed roots were formed on the cut ends of the explants. […]

| Compound | transformation efficiency (NAA 1 mg/l in the medium) | transformation efficiency compared to control with no auxin (1 mg/l NAA) | transgenic roots obtained from hypocotyl explants (infected explants cultured and selected in medium containing 1 mg/l NAA) | transgenic roots obtained from hypocotyl explants (control, 0-1 mg/l IBA in the rooting induction and selection medium) | transformation efficiency compared to control with no auxin (3 mg/l IBA) | transformation efficiency (high concentration of IBA, 3 to 5 mg/l, in the medium) | transformation efficiency (soybean hypocotyl and cotyledon explants, medium with 1 mg/l IBA compared to no auxin) |
| --- | --- | --- | --- | --- | --- | --- | --- |
| O=C(O)Cc1cccc2ccccc12 [NAA, napthalene acetic acid] | dramatically increased | doubled | more than 20 |  |  |  |  |
| O=C(O)CCCc1c[nH]c2ccccc12 [IBA, indole-3-butyric acid] |  |  |  | 1-5 | doubled | dramatically increased | similar |
